Reference: patent US11345700B2, “Methods of preparing inhibitors of influenza viruses replication” (priority 2013, dated 2022)
Read-outs that look alike come from different tables or passages of the source. Marks after values point to notes of the source that are not given here.

What was measured:
[1] = Human influenza challenge: safety assessment, adverse events; assay type: in vivo, healthy volunteers (humans)
Description: A list of adverse events occurring in ≥10% of subjects in any treatment group is presented (Table 29). Influenza-like illness was the most frequently reported adverse event, and was reported by an approximately equal proportion of subjects in the placebo and Compound (1) groups.

[2] = system: influenza A/Wisconsin/67/2005 (H3N2) challenge strain virus; test: Human influenza challenge: clinical and influenza-like symptom scores; assay type: in vivo, healthy volunteers (humans)
Method: (§1) Subjects underwent thrice daily nasal swabs, and kept thrice daily score cards for clinical symptoms from Days 1-7, and were discharged from the facility on Day 8, with safety follow-up at approximately Day 28. Nasal swabs were assayed for influenza virus in cell culture (primary analysis) and by qRT-PCR (secondary analysis).
Subjects recorded clinical symptoms three times a day in diaries. An AUC of clinical and influenza-like symptom scores from Day 1 through Day 7 was calculated.

[3] = system: influenza A/Wisconsin/67/2005 (H3N2) challenge strain virus; test: Human influenza challenge: nasal influenza shedding by qRT-PCR; assay type: in vivo, healthy volunteers (humans)
Method: as §1

influenza A = test: Mouse model of influenza A: lung viral titers; assay type: in vivo, mice; conditions: for Log10 Reduction vs. Vehicle: study day 6; for Lung Viral Titer: titers on study day 6
[4] = system: Influenza A/California/04/2009 (pndH1N1) virus; assay type: in vivo, BALB/c mice
[5] = Pooled Compound (1) dose groups (N = 52)
[6] = Study 1, 30 mg/kg BID from 24 h post infection for 5 days
[7] = Study 2, 3 mg/kg BID from 24 h post infection for 5 days
[8] = Study 2, 10 mg/kg BID from 24 h post infection for 5 days
[9] = Study 2, 30 mg/kg BID from 24 h post infection for 5 days
[10] = 1 mg/kg p.o. twice a day for 10 days starting 2 hours prior to virus exposure
[11] = 3 mg/kg p.o. twice a day for 10 days starting 2 hours prior to virus exposure
[12] = 10 mg/kg p.o. twice a day for 10 days starting 2 hours prior to virus exposure

Q: What does the source list for `O=C(O)[C@H]1[C@H]2CC[C@H](CC2)[C@@H]1Nc1nc(-c2c[nH]c3ncc(F)cc23)ncc1F` [Compound (1)]?
A: Adverse event: Nasal congestion ([1]; Pooled Compound (1), N = 72): 1 (1.4) n(%); Adverse event: Nausea ([1]; Pooled Compound (1), N = 72): 3 (4.2) n(%); Adverse event: Oropharylngeal pain ([1]; Pooled Compound (1), N = 72): 3 (4.2) n(%); Adverse event: Rhinorrhea ([1]; Pooled Compound (1), N = 72): 3 (4.2) n(%); Adverse event: Spirometry abnormal ([1]; Pooled Compound (1), N = 72): 10 (13.9) n(%); Adverse event: Tension Headache ([1]; Pooled Compound (1), N = 72): 3 (4.2) n(%); discontinuations due to Compound (1)-related adverse events; serious adverse events ([1]; healthy volunteers, five daily doses): no discontinuations; alanine aminotransferase (ALT) ([1]; observed in both placebo and Compound (1) recipients): elevations in alanine aminotransferase (ALT) were observed; Composite Clinical Symptom AUC, median ([2]; 100 mg QD (N = 12)): 1.85 Grade*Day; Composite Clinical Symptom Duration, median ([2]; 100 mg QD (N = 12)): 3.21 days; Composite Clinical Symptom Peak, mean ([2]; 100 mg QD (N = 12)): 3.17 Grade; Influenza like Symptom AUC, median ([2]; 100 mg QD (N = 12)): 1.85 Grade*Day; Influenza like Symptom Duration, median ([2]; 100 mg QD (N = 12)): 3.21 days; Influenza like Symptom Peak, mean ([2]; 100 mg QD (N = 12)): 2.75 Grade; Composite Clinical Symptom AUC, median ([2]; 400 mg QD (N = 12)): 4.70 Grade*Day; Composite Clinical Symptom Duration, median ([2]; 400 mg QD (N = 12)): 3.34 days; Composite Clinical Symptom Peak, mean ([2]; 400 mg QD (N = 12)): 2.83 Grade; Influenza like Symptom AUC, median ([2]; 400 mg QD (N = 12)): 3.80 Grade*Day; Influenza like Symptom Duration, median ([2]; 400 mg QD (N = 12)): 3.34 days; Influenza like Symptom Peak, mean ([2]; 400 mg QD (N = 12)): 2.42 Grade; Composite Clinical Symptom AUC, median ([2]; 900/600 mg (N = 14)): 1.75 Grade*Day; Composite Clinical Symptom Duration, median ([2]; 900/600 mg (N = 14)): 2.69 days; Composite Clinical Symptom Peak, mean ([2]; 900/600 mg (N = 14)): 3.71 Grade; Influenza like Symptom AUC, median ([2]; 900/600 mg (N = 14)): 1.75 Grade*Day; Influenza like Symptom Duration, median ([2]; 900/600 mg (N = 14)): 2.69 days; Influenza like Symptom Peak, mean ([2]; 900/600 mg (N = 14)): 3.21 Grade; Composite Clinical Symptom AUC, median ([2]; 1200/600 mg (N = 14)): 1.95 Grade*Day; Composite Clinical Symptom Duration, median ([2]; 1200/600 mg (N = 14)): 1.88 days; Composite Clinical Symptom Peak, mean ([2]; 1200/600 mg (N = 14)): 1.50 Grade; Influenza like Symptom AUC, median ([2]; 1200/600 mg (N = 14)): 1.75 Grade*Day; Influenza like Symptom Duration, median ([2]; 1200/600 mg (N = 14)): 1.88 days; Influenza like Symptom Peak, mean ([2]; 1200/600 mg (N = 14)): 1.36 Grade; Composite Clinical Symptom AUC, median [2, 5]: 2.15 Grade*Day; Composite Clinical Symptom Duration, median [2, 5]: 2.34 days; Composite Clinical Symptom Peak, mean [2, 5]: 2.79 Grade; Influenza like Symptom AUC, median [2, 5]: 2.05 Grade*Day; Influenza like Symptom Duration, median [2, 5]: 2.34 days; Influenza like Symptom Peak, mean [2, 5]: 2.42 Grade; Viral Sheeding by qRT-PCR AUC, median ([3]; 100 mg QD (N = 12)): 6.05 log10 copies/mL*Day; Viral Sheeding by qRT-PCR Duration, median ([3]; 100 mg QD (N = 12)): 0.96 days; Viral Sheeding by qRT-PCR Peak, mean ([3]; 100 mg QD (N = 12)): 4.36 log10 TCID50/mL; Viral Sheeding by qRT-PCR AUC, median ([3]; 400 mg QD (N = 12)): 4.90 log10 copies/mL*Day; Viral Sheeding by qRT-PCR Duration, median ([3]; 400 mg QD (N = 12)): 1.36 days; Viral Sheeding by qRT-PCR Peak, mean ([3]; 400 mg QD (N = 12)): 3.90 log10 TCID50/mL; Viral Sheeding by qRT-PCR AUC, median ([3]; 900/600 mg (N = 14)): 10.65 log10 copies/mL*Day; Viral Sheeding by qRT-PCR Duration, median ([3]; 900/600 mg (N = 14)): 2.39 days; Viral Sheeding by qRT-PCR Peak, mean ([3]; 900/600 mg (N = 14)): 5.08 log10 TCID50/mL; Viral Sheeding by qRT-PCR AUC, median ([3]; 1200/600 mg (N = 14)): 0.45 log10 copies/mL*Day; Viral Sheeding by qRT-PCR Duration, median ([3]; 1200/600 mg (N = 14)): 0.00 days; Viral Sheeding by qRT-PCR Peak, mean ([3]; 1200/600 mg (N = 14)): 2.37 log10 TCID50/mL; Viral Sheeding by qRT-PCR AUC, median [3, 5]: 3.45 log10 copies/mL*Day; Viral Sheeding by qRT-PCR Duration, median [3, 5]: 0.71 days; Viral Sheeding by qRT-PCR Peak, mean [3, 5]: 3.91 log10 TCID50/mL; Log10 Reduction vs. Vehicle (influenza A; [6]): −2.25***; Lung Viral Titer (influenza A; [6]): 3.95 Log10 TCID50; Log10 Reduction vs. Vehicle (influenza A; [7]): −1.04; Lung Viral Titer (influenza A; [7]): 5.24*** Log10 TCID50; Log10 Reduction vs. Vehicle (influenza A; [8]): −1.08; Lung Viral Titer (influenza A; [8]): 5.20*** Log10 TCID50; Log10 Reduction vs. Vehicle (influenza A; [9]): −1.75; Lung Viral Titer (influenza A; [9]): 4.53*** Log10 TCID50; Mean Lung Parameters (Day 6): Score (hemorrhage score 0-4) [4, 10]: 0.6; Mean Lung Parameters (Day 6): Virus Titer [4, 10]: 5.5 Log10 CCID50/g; Mean Lung Parameters (Day 6): Weight [4, 10]: 246 mg; Mean Lung Parameters (Day 6): Score (hemorrhage score 0-4) [4, 11]: 0.0; Mean Lung Parameters (Day 6): Virus Titer [4, 11]: 3.1 Log10 CCID50/g; Mean Lung Parameters (Day 6): Weight [4, 11]: 123 mg; Mean Lung Parameters (Day 6): Score (hemorrhage score 0-4) [4, 12]: 0.2; Mean Lung Parameters (Day 6): Virus Titer [4, 12]: <2.6^d*** Log10 CCID50/g; Mean Lung Parameters (Day 6): Weight [4, 12]: 132 mg
